One test concerns the target Histamine H2 receptor (Homo sapiens, UniProt P25021). It is filed as functional, cell-based.
Test [1] addresses Delta-type opioid receptor (Homo sapiens, UniProt P41143).
Test [2] concerns the target Sodium-dependent noradrenaline transporter (Homo sapiens, UniProt P23975).
The target of test [3] is T1, Muscarinic acetylcholine receptor M2 (Homo sapiens, UniProt P08172).
T1 sequence (P08172 whole entry): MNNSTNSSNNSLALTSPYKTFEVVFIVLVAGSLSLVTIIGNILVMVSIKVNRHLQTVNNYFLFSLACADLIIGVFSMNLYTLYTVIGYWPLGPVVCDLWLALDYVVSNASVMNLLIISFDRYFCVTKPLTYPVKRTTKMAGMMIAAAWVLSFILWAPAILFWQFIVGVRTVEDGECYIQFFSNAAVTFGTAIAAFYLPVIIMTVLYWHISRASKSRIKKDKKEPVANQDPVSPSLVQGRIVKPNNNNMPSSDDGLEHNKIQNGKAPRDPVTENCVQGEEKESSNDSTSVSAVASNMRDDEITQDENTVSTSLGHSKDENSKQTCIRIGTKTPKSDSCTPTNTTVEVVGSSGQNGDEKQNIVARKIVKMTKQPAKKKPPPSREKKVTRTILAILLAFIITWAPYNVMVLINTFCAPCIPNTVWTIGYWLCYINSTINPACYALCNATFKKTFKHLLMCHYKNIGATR
Type of test: functional, cell-based.

Test [4] addresses T2, Alpha-1A adrenergic receptor (Homo sapiens, UniProt P35348).
T2 sequence (P35348 whole entry): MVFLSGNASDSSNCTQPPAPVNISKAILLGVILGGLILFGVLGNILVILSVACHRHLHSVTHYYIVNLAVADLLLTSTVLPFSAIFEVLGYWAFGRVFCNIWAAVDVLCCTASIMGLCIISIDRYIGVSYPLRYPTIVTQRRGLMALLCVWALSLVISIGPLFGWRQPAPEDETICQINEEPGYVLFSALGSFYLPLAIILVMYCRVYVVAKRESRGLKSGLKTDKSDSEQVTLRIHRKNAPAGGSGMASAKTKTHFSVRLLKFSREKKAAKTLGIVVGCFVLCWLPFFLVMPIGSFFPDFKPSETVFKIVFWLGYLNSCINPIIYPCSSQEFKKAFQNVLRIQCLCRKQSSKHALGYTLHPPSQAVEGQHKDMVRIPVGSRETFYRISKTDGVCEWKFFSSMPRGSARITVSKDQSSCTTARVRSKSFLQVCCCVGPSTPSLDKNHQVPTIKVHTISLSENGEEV
It is filed as functional, cell-based.

The next test concerns the target Histamine H3 receptor (Homo sapiens, UniProt Q9Y5N1).
For the next test, the target named is Mu-type opioid receptor (Homo sapiens, UniProt P35372).
Another test addresses T3, B2 bradykinin receptor (Homo sapiens, UniProt P30411).
T3 sequence (P30411 whole entry): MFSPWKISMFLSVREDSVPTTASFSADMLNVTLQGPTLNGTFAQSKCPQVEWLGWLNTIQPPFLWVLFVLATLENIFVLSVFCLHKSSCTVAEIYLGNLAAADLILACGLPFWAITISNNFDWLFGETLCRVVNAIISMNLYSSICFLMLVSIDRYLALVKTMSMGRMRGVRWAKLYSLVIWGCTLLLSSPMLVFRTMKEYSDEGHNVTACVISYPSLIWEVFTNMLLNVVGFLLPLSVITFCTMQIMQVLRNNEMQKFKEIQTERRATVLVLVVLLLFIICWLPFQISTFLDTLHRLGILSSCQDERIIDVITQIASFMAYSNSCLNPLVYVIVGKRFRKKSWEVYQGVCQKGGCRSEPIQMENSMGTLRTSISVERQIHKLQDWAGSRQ

For test [5], the target named is T4, 5-hydroxytryptamine receptor 2C (Homo sapiens, UniProt P28335).
T4 sequence (P28335 whole entry): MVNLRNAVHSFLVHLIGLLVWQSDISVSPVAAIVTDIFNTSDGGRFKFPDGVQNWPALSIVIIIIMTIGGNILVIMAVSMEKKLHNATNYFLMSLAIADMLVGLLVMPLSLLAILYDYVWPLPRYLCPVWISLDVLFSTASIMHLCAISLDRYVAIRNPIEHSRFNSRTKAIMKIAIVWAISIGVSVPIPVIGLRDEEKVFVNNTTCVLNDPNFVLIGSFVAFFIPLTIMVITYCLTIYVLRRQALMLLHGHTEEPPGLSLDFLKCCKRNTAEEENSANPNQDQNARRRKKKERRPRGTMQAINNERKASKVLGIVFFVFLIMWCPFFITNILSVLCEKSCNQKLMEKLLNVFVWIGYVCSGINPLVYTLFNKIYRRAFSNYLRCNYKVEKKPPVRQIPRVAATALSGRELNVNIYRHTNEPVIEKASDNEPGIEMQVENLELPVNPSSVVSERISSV

The term AC50 denotes the concentration giving half of the maximal activity seen. Read a high AC50 as activity only at high concentration.
Note: assay procedure not described here.

Histamine H3 receptor, sequence (Q9Y5N1 whole entry): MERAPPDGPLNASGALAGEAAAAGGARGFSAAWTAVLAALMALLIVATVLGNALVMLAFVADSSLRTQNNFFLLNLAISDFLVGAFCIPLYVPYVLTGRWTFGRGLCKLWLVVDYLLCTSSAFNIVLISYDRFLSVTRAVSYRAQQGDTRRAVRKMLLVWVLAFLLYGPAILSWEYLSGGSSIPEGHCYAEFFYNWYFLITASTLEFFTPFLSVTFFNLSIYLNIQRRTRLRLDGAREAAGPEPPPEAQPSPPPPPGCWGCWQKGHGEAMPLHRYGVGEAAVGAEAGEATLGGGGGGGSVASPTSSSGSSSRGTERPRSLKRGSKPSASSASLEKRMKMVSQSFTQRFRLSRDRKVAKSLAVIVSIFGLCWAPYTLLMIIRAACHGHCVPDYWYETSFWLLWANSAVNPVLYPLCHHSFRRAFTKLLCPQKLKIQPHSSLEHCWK
Histamine H2 receptor, sequence (P25021 whole entry): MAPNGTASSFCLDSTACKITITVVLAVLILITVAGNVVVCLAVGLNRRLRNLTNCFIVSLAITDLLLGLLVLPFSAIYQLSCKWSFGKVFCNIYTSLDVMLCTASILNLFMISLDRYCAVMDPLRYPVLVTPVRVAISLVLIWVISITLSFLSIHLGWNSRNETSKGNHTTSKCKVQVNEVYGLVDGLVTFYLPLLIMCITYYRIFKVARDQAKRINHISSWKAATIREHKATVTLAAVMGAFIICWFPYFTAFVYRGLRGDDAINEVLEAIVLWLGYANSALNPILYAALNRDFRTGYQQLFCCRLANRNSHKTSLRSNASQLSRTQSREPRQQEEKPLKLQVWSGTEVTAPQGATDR
Mu-type opioid receptor, sequence (P35372 whole entry): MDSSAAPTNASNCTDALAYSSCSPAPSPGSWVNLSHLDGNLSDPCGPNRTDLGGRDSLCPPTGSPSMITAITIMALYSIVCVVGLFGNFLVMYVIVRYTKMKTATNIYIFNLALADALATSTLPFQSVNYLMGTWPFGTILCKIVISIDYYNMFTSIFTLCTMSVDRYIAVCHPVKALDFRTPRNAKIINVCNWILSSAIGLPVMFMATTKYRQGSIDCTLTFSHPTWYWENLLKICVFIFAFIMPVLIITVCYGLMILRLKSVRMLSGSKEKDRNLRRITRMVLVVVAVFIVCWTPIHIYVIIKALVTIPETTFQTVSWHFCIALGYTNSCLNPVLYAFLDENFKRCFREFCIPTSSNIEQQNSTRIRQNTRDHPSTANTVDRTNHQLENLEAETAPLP
Sodium-dependent noradrenaline transporter, sequence (P23975 whole entry): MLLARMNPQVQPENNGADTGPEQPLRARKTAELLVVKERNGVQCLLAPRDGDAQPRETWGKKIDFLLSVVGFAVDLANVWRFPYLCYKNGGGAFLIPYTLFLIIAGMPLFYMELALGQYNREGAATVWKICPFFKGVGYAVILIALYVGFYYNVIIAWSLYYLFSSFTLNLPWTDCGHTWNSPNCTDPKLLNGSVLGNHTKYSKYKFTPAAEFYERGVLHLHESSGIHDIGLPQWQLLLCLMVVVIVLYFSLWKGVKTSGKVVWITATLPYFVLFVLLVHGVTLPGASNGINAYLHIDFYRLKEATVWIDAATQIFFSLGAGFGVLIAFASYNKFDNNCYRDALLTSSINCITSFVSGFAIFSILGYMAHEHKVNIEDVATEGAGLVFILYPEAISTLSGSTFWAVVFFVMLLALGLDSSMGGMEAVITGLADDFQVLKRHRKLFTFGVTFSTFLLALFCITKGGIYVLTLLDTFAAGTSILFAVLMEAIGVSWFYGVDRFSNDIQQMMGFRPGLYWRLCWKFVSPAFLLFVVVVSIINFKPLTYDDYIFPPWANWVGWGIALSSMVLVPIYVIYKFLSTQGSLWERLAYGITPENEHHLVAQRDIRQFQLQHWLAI
Delta-type opioid receptor, sequence (P41143 whole entry): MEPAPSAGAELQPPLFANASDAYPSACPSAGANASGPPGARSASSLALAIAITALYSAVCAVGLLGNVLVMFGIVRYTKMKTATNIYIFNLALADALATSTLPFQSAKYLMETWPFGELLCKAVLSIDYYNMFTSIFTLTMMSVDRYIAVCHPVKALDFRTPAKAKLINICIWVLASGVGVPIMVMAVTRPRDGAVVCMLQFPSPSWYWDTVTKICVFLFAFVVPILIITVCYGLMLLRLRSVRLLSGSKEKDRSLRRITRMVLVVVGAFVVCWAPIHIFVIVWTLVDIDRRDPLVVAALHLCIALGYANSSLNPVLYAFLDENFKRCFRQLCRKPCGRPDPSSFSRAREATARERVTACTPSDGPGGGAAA

Regarding `CC(C)CN(C[C@@H](O)[C@H](Cc1ccccc1)NC(=O)O[C@H]1CCOC1)S(=O)(=O)c1ccc(N)cc1`, the AC50 at Histamine H2 receptor is above 10 µM; in [1], above 30 µM; in [2], above 10 µM; in [3] it was above 10 µM; in test [4] it was above 30 µM; on Histamine H3 receptor, above 10 µM. The AC50 (on Mu-type opioid receptor; at B2 bradykinin receptor; in [5]) was above 30 µM in each case.

For `C[C@@H](Cc1ccccc1)N(C)Cc1ccccc1` [BENZPHETAMINE], the AC50 is above 10 µM on Histamine H2 receptor; above 30 µM in test [1]; 0.036 µM in [2]; above 10 µM in [3]; above 30 µM in test [4]; above 10 µM on Histamine H3 receptor. The half-maximal activity concentration (AC50) at Mu-type opioid receptor is above 30 µM; at B2 bradykinin receptor it was above 10 µM; in test [5], above 30 µM.

In the case of `C=C(c1ccccc1OCc1cccc(Cl)c1)n1ccnc1` [CROCONAZOLE], the AC50 is above 10 µM on Histamine H2 receptor; above 30 µM in [1]; 1.8 µM in [2]; above 10 µM in [3]; above 30 µM in test [4]; above 10 µM at Histamine H3 receptor. Also, the concentration at half-maximal activity (AC50) was above 30 µM at Mu-type opioid receptor, above 30 µM at B2 bradykinin receptor and 18 µM in [5].

Turning to `Cc1cnc(Nc2ccc(OCCN3CCCC3)cc2)nc1Nc1cccc(S(=O)(=O)NC(C)(C)C)c1` [FEDRATINIB], the concentration at half-maximal activity (AC50) at Histamine H2 receptor is above 10 µM; in test [1] it was above 30 µM; in test [2], 0.24 µM; in [3] it was above 10 µM; on Histamine H3 receptor, 3.9 µM; at Mu-type opioid receptor it was 17 µM. In addition, the AC50 (on B2 bradykinin receptor; in test [5]) was above 30 µM each time.

As to `CC(=O)[C@@]1(O)CC[C@H]2[C@@H]3C[C@H](C)C4=CC(=O)C=C[C@]4(C)[C@@]3(F)[C@@H](O)C[C@@]21C` [FLUOROMETHOLONE], the half-maximal activity concentration (AC50) is above 10 µM on Histamine H2 receptor; above 30 µM in test [1]; above 10 µM in test [2]; above 10 µM in test [3]; above 30 µM in test [4]; above 10 µM on Histamine H3 receptor. The results for the concentration at half-maximal activity (AC50) (at Mu-type opioid receptor; at B2 bradykinin receptor; in [5]) were above 30 µM, above 10 µM and above 30 µM, respectively.

As for `N=C(N)NC(=O)Cc1c(Cl)cccc1Cl` [GUANFACINE], the AC50 at Histamine H2 receptor is above 30 µM; in test [1], above 30 µM; in [2], above 30 µM; in test [3] it was above 30 µM; in [4] it was 0.0245 µM; on Mu-type opioid receptor it was above 30 µM. For the same compound, the AC50 is above 30 µM at B2 bradykinin receptor and 10 µM in test [5].

With `CC1Cc2ccccc2N1NC(=O)c1ccc(Cl)c(S(N)(=O)=O)c1` (centres undefined) [INDAPAMIDE], the AC50 is above 10 µM at Histamine H2 receptor; above 30 µM in [1]; above 30 µM in test [2]; above 10 µM in test [3]; above 30 µM in [4]; above 10 µM on Histamine H3 receptor. In addition, the concentration at half-maximal activity (AC50) (on Mu-type opioid receptor; on B2 bradykinin receptor; in test [5]) was above 30 µM each time.

`CN1CCC(=C2c3ccccc3CC(=O)c3sccc32)CC1` [KETOTIFEN]: the AC50 was above 10 µM at Histamine H2 receptor; above 30 µM in test [1]; above 10 µM in test [2]; 1.9 µM in [3]; above 30 µM in test [4]; above 30 µM on Mu-type opioid receptor. The AC50 was above 10 µM on B2 bradykinin receptor and 2.3 µM in test [5].

In the case of `O=C(C[S+]([O-])Cc1ccco1)NC/C=C\COc1cc(CN2CCCCC2)ccn1` (centres undefined) [LAFUTIDINE], the AC50 at Histamine H2 receptor was above 10 µM; in test [1] it was above 30 µM; in test [2] it was above 10 µM; in test [3], above 10 µM; in [4] it was above 30 µM; on Histamine H3 receptor, above 10 µM. For the same compound, the AC50 on Mu-type opioid receptor was above 30 µM; at B2 bradykinin receptor, above 10 µM; in test [5], above 30 µM.

In the case of `CCC1(CC)C(=O)NC(=O)N(C)C1=O` [METHARBITAL], the concentration at half-maximal activity (AC50) on Histamine H2 receptor was above 10 µM; in test [1] it was above 30 µM; in [2] it was above 10 µM; in test [3], above 10 µM; at Histamine H3 receptor it was above 10 µM; on Mu-type opioid receptor, above 30 µM. Further, the AC50 at B2 bradykinin receptor is above 10 µM; in test [5], above 30 µM.

Take `Nc1cc(N2CCCCC2)nc(N)[n+]1[O-]` [MINOXIDIL]: the AC50 at Histamine H2 receptor was above 30 µM; in test [1] it was above 30 µM; in [2], above 30 µM; in test [3], above 10 µM; in test [4], above 30 µM; on Histamine H3 receptor, above 10 µM. The concentration at half-maximal activity (AC50) (at Mu-type opioid receptor; at B2 bradykinin receptor; in [5]) was above 30 µM throughout.

In the case of `CC(C)(C)NCC(O)COc1cccc2c1CC(O)C(O)C2` (centres undefined) [NADOLOL], the concentration at half-maximal activity (AC50) was above 10 µM on Histamine H2 receptor; above 30 µM in test [1]; above 10 µM in test [2]; above 10 µM in test [3]; above 30 µM in [4]; above 10 µM at Histamine H3 receptor. Moreover, the AC50 at Mu-type opioid receptor was above 30 µM; at B2 bradykinin receptor, above 10 µM; in test [5] it was above 30 µM.

As for `Nc1ccc(S(=O)(=O)Nc2ncccn2)cc1` [SULFADIAZINE], the half-maximal activity concentration (AC50) at Histamine H2 receptor was above 10 µM; in test [1], above 30 µM; in test [2] it was above 10 µM; in test [3], above 10 µM; at Histamine H3 receptor it was above 10 µM; on Mu-type opioid receptor, above 30 µM. Further, the half-maximal activity concentration (AC50) at B2 bradykinin receptor was above 10 µM; in test [5], above 30 µM.

Consider `CC(C(=O)O)c1ccc(C(=O)c2ccccc2)s1` (centres undefined) [TIAPROFENIC ACID], for which the half-maximal activity concentration (AC50) on Histamine H2 receptor is above 10 µM; in test [1], above 30 µM; in [2], above 10 µM; in [3] it was above 10 µM; in test [4] it was above 30 µM; at Histamine H3 receptor, above 10 µM. Besides, the AC50 was above 30 µM at Mu-type opioid receptor, above 10 µM at B2 bradykinin receptor and above 30 µM in test [5].

With `CCN(C(C)=O)c1cccc(-c2ccnc3c(C#N)cnn23)c1` [ZALEPLON], the AC50 on Histamine H2 receptor is above 10 µM; in [1], above 30 µM; in test [2], above 30 µM; in [3] it was above 10 µM; in [4] it was above 30 µM; at Histamine H3 receptor it was above 10 µM. In addition, the AC50 (on Mu-type opioid receptor; at B2 bradykinin receptor; in [5]) was above 30 µM in each case.

As for TEPRENONE, the AC50 on Histamine H2 receptor was above 10 µM; in [1], above 30 µM; in test [2], above 30 µM; in [3], above 10 µM; in [4] it was above 30 µM; at Histamine H3 receptor, above 10 µM. Besides, the AC50 (at Mu-type opioid receptor; on B2 bradykinin receptor; in test [5]) was above 30 µM throughout.

The record behind these values is ChEMBL document CHEMBL5291721, “A preclinical secondary pharmacology resource illuminates target-adverse drug reaction associations of marketed drugs” (Nat Commun, 2023).
